From patent publication US8614327B2 (Vertex Pharmaceuticals Incorporated, priority 2004, dated 2013)
pEC50: −log10 of the molar value.

Biological target: T1, ΔF508-CFTR (Homo sapiens, UniProt P13569, DEL508-508)
T1 construct: expressed in transfected cells
Test: Membrane potential optical (FRET/VIPR) assay, identification of potentiator compounds
Type: cell-based
Settings: Table 3, assay not given; for % Activity: relative efficacy
Summary of the method: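 Double-addition potentiator screen: compound delivered in gluconate-substituted Cl^--free medium, membrane potential followed via CC2-DMPE/DiSBAC2(3) FRET on VIPR. Cells were ΔF508-CFTR-expressing NIH3T3 mouse fibroblasts, held 2 h at 37° C. then 24 h at 27° C. before assay.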

T1 sequence (P13569 with tags, fused parts or gaps DEL508-508): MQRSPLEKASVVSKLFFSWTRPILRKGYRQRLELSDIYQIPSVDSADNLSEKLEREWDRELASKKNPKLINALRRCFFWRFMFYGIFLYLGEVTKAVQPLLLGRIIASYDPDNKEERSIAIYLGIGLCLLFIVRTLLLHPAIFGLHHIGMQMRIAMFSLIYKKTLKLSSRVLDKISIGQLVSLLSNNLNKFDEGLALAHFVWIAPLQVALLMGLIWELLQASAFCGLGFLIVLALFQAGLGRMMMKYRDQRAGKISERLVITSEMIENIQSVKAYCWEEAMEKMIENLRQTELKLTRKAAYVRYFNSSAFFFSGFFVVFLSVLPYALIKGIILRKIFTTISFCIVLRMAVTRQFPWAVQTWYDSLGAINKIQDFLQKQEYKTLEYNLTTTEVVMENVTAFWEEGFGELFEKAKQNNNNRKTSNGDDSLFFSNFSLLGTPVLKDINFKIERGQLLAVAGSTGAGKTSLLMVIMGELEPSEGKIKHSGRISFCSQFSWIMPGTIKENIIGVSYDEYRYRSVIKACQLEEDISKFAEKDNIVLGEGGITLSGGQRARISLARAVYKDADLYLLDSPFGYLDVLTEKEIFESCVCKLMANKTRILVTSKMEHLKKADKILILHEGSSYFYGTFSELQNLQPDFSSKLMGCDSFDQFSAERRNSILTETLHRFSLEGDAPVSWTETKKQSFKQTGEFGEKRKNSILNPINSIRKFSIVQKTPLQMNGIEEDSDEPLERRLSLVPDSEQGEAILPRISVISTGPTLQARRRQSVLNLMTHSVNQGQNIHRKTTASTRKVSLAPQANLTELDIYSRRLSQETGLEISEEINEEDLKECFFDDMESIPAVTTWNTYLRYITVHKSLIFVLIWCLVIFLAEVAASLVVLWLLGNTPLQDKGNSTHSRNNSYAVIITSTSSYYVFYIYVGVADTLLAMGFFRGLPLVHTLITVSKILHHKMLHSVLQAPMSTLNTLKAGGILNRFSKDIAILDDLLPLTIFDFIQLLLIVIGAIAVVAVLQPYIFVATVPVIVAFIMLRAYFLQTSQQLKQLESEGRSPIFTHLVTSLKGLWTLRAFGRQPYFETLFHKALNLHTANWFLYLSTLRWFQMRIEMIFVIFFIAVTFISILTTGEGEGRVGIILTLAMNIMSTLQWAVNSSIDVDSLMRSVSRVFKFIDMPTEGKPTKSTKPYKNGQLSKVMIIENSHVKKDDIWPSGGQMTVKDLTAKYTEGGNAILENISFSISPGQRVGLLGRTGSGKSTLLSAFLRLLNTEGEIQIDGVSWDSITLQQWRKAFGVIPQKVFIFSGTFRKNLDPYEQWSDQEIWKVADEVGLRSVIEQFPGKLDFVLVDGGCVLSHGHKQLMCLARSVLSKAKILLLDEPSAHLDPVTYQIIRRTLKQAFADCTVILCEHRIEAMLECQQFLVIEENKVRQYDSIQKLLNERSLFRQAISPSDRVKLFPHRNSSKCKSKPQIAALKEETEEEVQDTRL

| pEC50 | % Activity | Structure (SMILES) |
| --- | --- | --- |
| > 5.00 | ++ (between 25% to 100%) | Cc1cccc2[nH]cc(C(=O)Nc3ccc(OC(C)C)c(O)c3)c(=O)c12 [Compound 701, N-(3-hydroxy-4-isopropoxy-phenyl)-5-methyl-4-oxo-1H-quinoline-3-carboxamide] |
| > 5.00 | ++ (between 25% to 100%) | COc1cc(N2CCCC2)ccc1NC(=O)c1c[nH]c2ccccc2c1=O [Compound 675, N-(2-methoxy-4-pyrrolidin-1-yl-phenyl)-4-oxo-1H-quinoline-3-carboxamide] |
| > 5.00 | ++ (between 25% to 100%) | CCc1cc(C(C)(C)C)c(O)cc1NC(=O)c1c[nH]c2ccc(F)cc2c1=O [Compound 649, N-(2-ethyl-5-hydroxy-4-tert-butyl-phenyl)-6-fluoro-4-oxo-1H-quinoline-3-carboxamide] |
|  | ++ (between 25% to 100%) | O=C(Nc1ccc(C2CCCCC2)cc1)c1c[nH]c2ccccc2c1=O [Compound 140, N-(4-cyclohexylphenyl)-4-oxo-1H-quinoline-3-carboxamide] |
| > 5.00 | ++ (between 25% to 100%) | CC(C)c1ccc(NC(=O)c2c[nH]c3ccccc3c2=O)cc1N [Compound 69, N-(3-amino-4-isopropyl-phenyl)-4-oxo-1H-quinoline-3-carboxamide] |
| 4.22 to 4.60 | + (<25%) | O=C(Nc1ccc2oc(-c3ccccc3)nc2c1)c1c[nH]c2ccccc2c1=O [Compound 376, 4-oxo-N-(2-phenylbenzooxazol-5-yl)-1H-quinoline-3-carboxamide] |
| 4.60 to 5.00 | ++ (between 25% to 100%) | CC(=O)N1CCC2(CCN(C(=O)OC(C)(C)C)CC2)c2ccc(NC(=O)c3c[nH]c4ccccc4c3=O)cc21 [Compound 334, 7′-[(4-oxo-1H-quinolin-3-ylcarbonyl)amino]-spiro[piperidine-4,4′(1′H)-1-acetyl-quinoline], 2′,3′-dihydro-carboxylic acid tert-butyl ester] |
| 4.22 to 4.60 | + (<25%) | O=C(Nc1ccc(F)cn1)c1c[nH]c2ccccc2c1=O [Compound 477, N-(5-fluoro-2-pyridyl)-4-oxo-1H-quinoline-3-carboxamide] |
| > 5.00 | ++ (between 25% to 100%) | O=C(Nc1ccccc1-c1ccccn1)c1c[nH]c2ccccc2c1=O [Compound 692, 4-oxo-N-[2-(2-pyridyl)phenyl]-1H-quinoline-3-carboxamide] |
| 4.22 to 4.60 | + (<25%) | CCn1cc(C(=O)Nc2ccccc2)c(=O)c2cc(OC)ccc21 [Compound 480, 1-ethyl-6-methoxy-4-oxo-N-phenyl-1H-quinoline-3-carboxamide] |
| 4.22 to 4.60 | + (<25%) | O=C(Nc1ccc(N2CCOCC2)cc1)c1c[nH]c2ccccc2c1=O [Compound 457, N-(4-morpholinophenyl)-4-oxo-1H-quinoline-3-carboxamide] |
| > 5.00 | ++ (between 25% to 100%) | Cc1cccc(NC(=O)c2c[nH]c3ccccc3c2=O)c1C [Compound 61, N-(2,3-dimethylphenyl)-4-oxo-1H-quinoline-3-carboxamide] |
| > 5.00 | ++ (between 25% to 100%) | O=C(Nc1cccc(Cc2ccccc2)c1)c1c[nH]c2ccccc2c1=O [Compound 389, N-(3-benzylphenyl)-4-oxo-1H-quinoline-3-carboxamide] |
| > 5.00 | ++ (between 25% to 100%) | Cc1cccc2[nH]cc(C(=O)Nc3ccc(N4CCC(F)(F)C4)cc3C(F)(F)F)c(=O)c12 [Compound 528, N-[4-(3,3-difluoropyrrolidin-1-yl)-2-(trifluoromethyl)phenyl]-5-methyl-4-oxo-1H-quinoline-3-carboxamide] |
| > 5.00 | ++ (between 25% to 100%) | O=C(Nc1ccc(C(F)(F)F)c(O)c1)c1c[nH]c2ccc(F)cc2c1=O [Compound 650, 6-fluoro-N-[3-hydroxy-4-(trifluoromethyl)phenyl]-4-oxo-1H-quinoline-3-carboxamide] |
